Earlier results as cited in patent publication US5840324A, “Antiparasitic compositions” (Commonwealth Scientific and Industrial Organisation, priority 1993, dated 1998).

Experiments:
[1] = for time of maximum concentration in the bloodstream: after oral administration; for absorption: conventional dosing; for activity of metabolic products: degradation products of absorbed compound
[2] = test system: plasma albumin

| Structure (SMILES) | absorption of ABZ in the abomasum | time of maximum concentration in the bloodstream [1] | absorption [1] | excretion of absorbed drug ([1]; in vivo) | metabolism ([1]; in vivo) | association with plasma albumin [2] | retention in the bloodstream at efficacious levels ([1]; against blood-consuming parasites) | dose lost in faeces ([1]; in vivo) | activity of metabolic products [1] |
| --- | --- | --- | --- | --- | --- | --- | --- | --- | --- |
| CCCSc1ccc2nc(NC(=O)OC)[nH]c2c1 [ABZ, [5-(propylthio)-1H-benzimidazol-2-yl]carbamic acid methyl ester] | virtually no absorption |  |  |  |  |  |  |  |  |
| Cl.c1ccc([C@H]2CN3CCSC3=N2)cc1 [Levamisole, (-)-(S)-2,3,5,6-tetrahydro-6-phenylimidazo[2,1-b]thiazole hydrochloride] |  | 2 to 4 h | rapidly absorbed from the rumen | rapidly excreted, predominantly in urine | rapidly metabolised |  |  |  |  |
| Cc1cc(C(C#N)c2ccc(Cl)cc2)c(Cl)cc1NC(=O)c1cc(I)cc(I)c1O (stereo not drawn) [closantel, 5'-chloro-4'-(4-chloro-α-cyanobenzyl)-3,5-diiodosalicyl-o-toluidide] |  |  | slowly absorbed |  |  | very strongly associate with plasma albumin | 3-4 weeks | about 50% |  |
| Cc1ccsc1/C=C/C1=NCCCN1C [morantel, (E)-1,4,5,6-tetrahydro-1-methyl-2-[2-(3-methyl-2-thienyl)vinyl]-pyrimidine] |  | 2 to 4 h | rapidly absorbed from the rumen | rapidly excreted, predominantly in urine | degraded at a rate consistent with first-pass metabolism |  |  |  | completely inactive |
| CN1CCCN=C1/C=C/c1cccs1 [pyrantel, 1,4,5,6-tetrahydro-1-methyl-2-[(E)-2-(2-thienyl)-vinyl]-pyrimidine-4,4'-methylenebis-(3-hydroxy-2-naphthoate)] |  | 2 to 4 h | rapidly absorbed from the rumen | rapidly excreted, predominantly in urine | degraded at a rate consistent with first-pass metabolism |  |  |  | completely inactive |
